Like-named read-outs stand apart in the source and are kept apart here.
What was measured:
[1] = Clinical study: saliva and plasma samples taken in parallel, correlation of lacosamide concentrations; assay type: in vivo, human; conditions: for Kp: human, saliva
Method: One embodiment of the present disclosure relates to the use of saliva samples as a tool to assess the concentration of lacosamide in the body of a mammal, particularly a human being. […] Preferably, saliva samples should be taken at least about 1 hour, preferably at least about 2 hours after an actual administration of lacosamide to said mammal to allow a steady state concentration to form, and to allow the proportional distribution of lacosamide into the saliva.
Accordingly, one embodiment of the current invention relates to the use of a saliva sample to assess the concentration of lacosamide in the body of a mammal, particularly in the plasma of a patient This can be done based on the recognition that the concentration of lacosamide in saliva is about 1.17 times the concentration in plasma. Based on the measurement of lacosamide in saliva, the concentration in plasma can be easily assessed using the equation C plasma= C saliva x about 0.855 (see Example 3 in the experimental part). The determination of lacosamide in saliva should be done in the steady state, which is usually reached after about one hour to two hours after the last drug administration to the mammal/patient from which the saliva sample is to be taken.
In a clinical study saliva and plasma samples have been taken in parallel.
The concentrations of lacosamide can be calculated using the following equations: Saliva concentration of lacosamide = 0.065 + 1.1697*plasma concentration of lacosamide [formula] Plasma concentration of lacosamide = 0.855*saliva concentration of lacosamide [formula]
These equations were validated by comparing measured lacosamide plasma concentrations with plasma concentrations predicted from measured saliva concentrations.

[2] = Expected plasma Cmax at bid doses, used for individual dose adaptation; assay type: in vivo
Method: Based on the determination of the actual lacosamide concentration in plasma (Cmessured) measured at time t (in hours after actual administration) and the comparison with the target concentration, an individual dosing may be adapted according to the following formula dose_new = dose_old⋅(Cmax,expected ⋅e^(-0.05⋅t))/(Cmeasured ⋅e^(-0.05⋅1h)) [formula]
The expected Cmax is usually at about 5, 10, 15, or 20 µg/mL for dose 100, 200, 300, or 400 mg bid.

[3] = Lacosamide plasma concentration of a patient, HPLC-UV assay with internal standard; assay type: in vivo; conditions: human, patient taking 100 mg twice a day, sample 7 h after the last administration, read-out: measured lacosamide plasma concentration
Method: 100 µL of plasma are transferred into Eppendorf tubes.
Calibration samples are added 10 µL working solution.
Study samples are added 10 µL of working solution int standard
After mixing 300 µL of methanol were added, the mixture is vortexed again and centrifuged
10 minutes at room temperature. 70 µL of the supernatant were transferred into a autosamplervial.
15 µL were injected into the HPLC-system.
For calibration the mean response factor for the peakheight ratios at 10 µg/mL was calculated: • RF = peakheight lacosamide/ peakheight int. Std. • Concentration in samples were calculated: 10/RFcalibration*RFsample
A patient taking 100 mg twice a day is suffering from seizures. A sample is taken 7 h after the last administration of lacosamide. The measured lacosamide plasma concentration is 1.9 µg/mL. The newly requested Cmax is 5 µg/mL, and the new dose has to be dose_new = 100⋅(5⋅e^(-0.05⋅t))/(1.9⋅e^(-0.05⋅1h)) = 195 mg bid (dose has to be doubled) [formula]

SMILES: COC[C@@H](NC(C)=O)C(=O)NCc1ccccc1 [Lacosamide, (R)-2-acetamido-N-benzyl-3-methoxypropionamide]
- correlation between lacosamide concentrations in saliva and plasma ([1]; Figure 2): excellent correlation
- Kp ([1]; regression equation with intercept 0.065, read-out: slope of Saliva concentration of lacosamide versus plasma concentration of lacosamide): 1.17
- Kp ([1]; steady state, about one to two hours after last administration, read-out: concentration of lacosamide in saliva relative to the concentration in plasma): ~1.17
- Cmax ([2]; dose 100 mg bid): ~5000 ng/mL
- Cmax ([2]; dose 200 mg bid): ~10000 ng/mL
- Cmax ([2]; dose 300 mg bid): ~15000 ng/mL
- Cmax ([2]; dose 400 mg bid): ~20000 ng/mL
- concentration at 7 h [3]: 1900 ng/mL

— patent EP2378291A1, “Lacosamide detection assay” (UCB Pharma GmbH, priority 2010, dated 2011)
